The term inhibition denotes the share of the control response that was lost under treatment.

Structures are written as SMILES.

We go through four compounds from patent EP0314008A2, “N-substituted aliphatic heterocyclic compounds able to facilitate the passage of active substances through physiological barriers” (priority 1987, dated 1989).

One series concerns serotonin. The series is described as follows: Test 74 - Antiserotonin (in vitro), isolated ileal segments. It counts as cell-based, guinea pig. The note with it: Cavia porcellus, contractile response to serotonin (1 mcg/ml); for inhibition at 1 µg/mL: Dose 1 γ/ml. The text has this:
Test 74 - Antiserotonin (in vitro):

For series [1], the system named is skin taken from a "nude" mouse.
Procedure: (§1) This study was carried out by "in vitro" tests using a skin diffusion cell apparatus consisting of two glass segments separated by a layer of skin taken from a "nude" mouse, genetically without hair. Suspensions of the substance to be tested are deposited on the stratum corneum of the skin. The dermic layer dips into a buffer solution from which withdrawals are made at intervals to determine the quantity of substance which has passed through the epidermis.
(§2) 1-dodecylazacycloheptan-2-one (azone) is used as reference standard.
(§3) Suspensions at the required concentrations (0.5 and 1% w/v) are then prepared by ultrasonic treatment three times for 30 seconds in an ice bath with a titanium-tipped ultrasonic generator. The pHs of the 1 % suspensions in 0.1 M pH 7.0 phosphated buffer are as follows:
(§4) The volume of examined suspension applied externally to the skin is 1 ml. The volume of buffer solution in the cell lower chamber is 10 ml. After each withdrawal of 1 ml of solution from the lower chamber, the volume was made up to 10 ml by adding buffer.
Series [2] concerns skin taken from a "nude" mouse. Put plainly: skin permeability test in vitro, skin diffusion cell apparatus, passage of naproxen-Na. The note with it: naproxen-Na passage with facilitating substance at 0.5%, second set.
Procedure: as §1, §2, §3, §4
A further series relates to LTD4. The series is described as follows: Test 37 - LTD4 antagonist (in vitro), isolated ileal segments. The note with it: Cavia porcellus, contractile response to LTD4 (10 ng/ml). In kind it is cell-based, guinea pig. The text has this: Test 37 - LTD4 antagonist (in vitro):
For a further series, the system named is histamine. The series is described as follows: Test 73 - Antihistaminic (in vitro), isolated ileal segments. The note with it: Cavia porcellus, contractile response to histamine (0.5 mcg/ml). In kind it is cell-based, guinea pig. The text has this: Test 73 - Antihistaminic (in vitro):
Inhibition of submaximal contractile responses of isolated guinea pig ileal segments, bathed in physiological salt solution, to histamine (0.5 mcg/ml) by more than 80 percent (>80) indicates activity.

Consider `CN1CCC(=C2c3ccccc3C=Cc3ccccc32)CC1` [Cyproheptadine, reference compound], for which the inhibition at 1 µg/mL in the series on serotonin worked out at 85%.

Consider `CCCCCCCCCCCCN1CCSCC1` [Example 1, 4-dodecylthiomorpholine], for which, in series [1], the “results compared with the compound of Example 3” value is listed as “practically equal results”.

`CCCCCCCCCCCCN1CC[S+]([O-])CC1` [Example 2, 4-dodecylthiomorpholine-1-oxide]: the “F.U.a. 355.5 nm” value is 0.143 F.U.a in series [2] (3.0 hours), 0.426 F.U.a in series [2] (5.0 hours), 0.755 F.U.a in series [2] (7.0 hours) and 0.033 F.U.a in series [2] ([…]). The nmoles passed in series [2] (3.0 hours) is 366.0 nmol; in series [2] (5.0 hours) it was 1093.0 nmol; in series [2] (7.0 hours), 1968.0 nmol; in series [2] ([…]) it was 82.5 nmol.

On to `CCCCCCCCCC(=O)N1CCSCC1` [Example 5, 4-decanoylthiomorpholide], for which, in the series with LTD4 (Dose 4 γ/ml), 4 µg/mL produced 28% inhibition. Besides, 8 µg/mL produced 75% inhibition with LTD4 (Dose 8 γ/ml). The results for the inhibition at 1 µg/mL in the series with histamine (Dose 1 γ/ml) and with serotonin were 18% and 100%, respectively. In addition, the inhibition at 2.5 µg/mL with histamine (Dose 2.5 γ/ml) came to 82%; with serotonin (Dose 2.5 γ/ml) it was 100%. For the same compound, the inhibition at 10 µg/mL in the series on histamine (Dose 10 γ/ml) and in the series on serotonin (Dose 10 γ/ml) was 100% in each case. The inhibition at 0.5 µg/mL with serotonin (Dose 0.5 γ/ml) was determined as 68%.
